Measurements as given in patent US20230331707A1, “PROGRAMMED CELL NECROSIS INHIBITOR, PREPARATION METHOD THEREFOR, AND USE THEREOF” (Shanghai Institute of Organic Chemistry, Chinese Academy of …, priority 2020, published 2023).
Read-outs that look alike come from different tables or passages of the source.

Key:
L929 cells = assay: Inhibition of TNF-induced programmed necrosis of L929 cells (Cell Titer-Glo viability); format: cell-based, mouse; details: Mus musculus, L929, L929 cells
Excerpt: (§1) The adopted biological assay protocol was: the effect of compounds on programmed necroptosis of TNF-induced FADD (Fas-Associated Death Domain) deficient Jurkat cells and L929 cells.
(§2) In order to verify the inhibitory effect of the compounds of the present invention on programmed cell necrosis at the cellular level, cell types that is closely related to the RIP1 pathway, namely FADD deficient Jurkat cells (human peripheral blood leukemia T cell strain) and L929 cells, were selected. Two different stimulation methods were used: tumor necrosis factor (TNFα) was used alone, or TNFα was used in combination with mitochondria-derived cysteine aspartate activator (SMAC) SM164. Cells viability was calculated by detecting chemiluminescence values, thereby obtaining the biological activity of the compound on the inhibition of programmed cell necrosis.
(§3) Methods: FADD deficient Jurkat cells: FADD deficient Jurkat cells (human peripheral blood leukemia T cell line) were cultured in vitro. After growing to the logarithmic growth phase, the cells were collected, centrifuged at 1000 rpm for 5 min, the supernatant was discarded, and the cell concentration was adjusted to 2.5×10^5/mL. Cells were seeded into 384-well plates, 40 μl per well. 5 μL of SM164 (50 nM) diluted in cell culture medium and 5 μL of each compound were added to the corresponding wells. After pretreatment at 37° C. for 1 h, 5 μL of TNFα (50 ng/mL) diluted in cell culture medium was added to each well of the stimulation group, and 5 μL of the culture medium was added to the control group. The plate was cultured in a cell incubator (37° C., 5% CO2) for 14 h, and […] of Cell Titer-Glo solution was added to each well, then incubated for 30 min at room temperature, and intracellular ATP level was measured by detecting luminescence. The unstimulated DMSO control wells were taken as 100% cell viability. L929 cells: The L929 cells (mouse fibroblasts) were cultured in vitro, digested and diluted to 6.25×10^4/ml, and the cells were seeded into 384-well plates, 40 μl per well. The plate was placed in a cell incubator (37° C., 5% CO2) for 12 hours. 5 μL of SM164 (500 nM) diluted in cell culture medium and 5 μL of each compound were added to the corresponding wells. After pretreatment at 37° C. for 1 h, 5 μL of TNFα (500 ng/mL) diluted in cell culture medium was added to each well of the stimulation group, and 5 μL of the culture medium was added to the control group. After the plate was cultured for 14 h in a cell incubator (37° C., 5% CO2), 15 μl of Cell Titer-Glo solution was added to each well. The plate was incubated at room temperature for 30 min, and intracellular ATP level was measured by detecting luminescence. The unstimulated DMSO control wells were taken as 100% cell viability. EC50 values of the compounds were calculated using Prism Graphpad statistical software.

FADD−/− Jurkat cells = assay: Inhibition of TNF-induced programmed necrosis of FADD deficient Jurkat cells (Cell Titer-Glo viability); format: cell-based; details: for activity of inhibition of programmed necrosis compared with GSK2982772: human FADD-deficient Jurkat cells, TNFα alone or in combination with SM164
Excerpt: as §1, §2, §3

[1] = stimulated with TNFα + SM164, read-out: EC50 (μM) L929 cells (mouse) TNFα + SM164
[2] = stimulated with TNFα alone, read-out: EC50 (μM) L929 cells (mouse) TNFα
[3] = Homo sapiens, Jurkat, 14 h, FADD−/− Jurkat cells, stimulated with TNFα + SM164, read-out: EC50 (μM) FADD−/− Jurkat cells (human) TNFα + SM164
[4] = Homo sapiens, Jurkat, FADD−/− Jurkat cells, stimulated with TNFα alone, read-out: EC50 (μM) FADD−/− Jurkat cells (human) TNFα

Row | Structure (SMILES) | EC50 (L929 cells; [1]) | EC50 (L929 cells; [2]) | EC50 (FADD−/− Jurkat cells; Homo sapiens, Jurkat, 14 h, read-out: EC50 (μM) FADD−/− Jurkat cells (human) TNFα + SM164) | EC50 (FADD−/− Jurkat cells; Homo sapiens, Jurkat, read-out: EC50 (μM) FADD−/− Jurkat cells (human) TNFα) | EC50 (FADD−/− Jurkat cells; [3]) | EC50 (FADD−/− Jurkat cells; [4]) | activity of inhibition of programmed necrosis compared with GSK2982772 (FADD−/− Jurkat cells) | EC50 (FADD−/− Jurkat cells; FADD−/− Jurkat cells, stimulated with TNFα + SM164, read-out: EC50 (μM) FADD−/− Jurkat cells (human) TNFα + SM164) | EC50 (FADD−/− Jurkat cells; FADD−/− Jurkat cells, stimulated with TNFα alone, read-out: EC50 (μM) FADD−/− Jurkat cells (human) TNFα)
1 | CNC(=O)c1ccc2c(c1)ncn2-c1ccc(CC(=O)N(O)Cc2ccccc2)cc1 [QY-5-62, 1-(4-(2-(benzyl(hydroxy)amino)-2-oxoethyl)phenyl)-N-methyl-1H-benzo[d]imidazol-5-formamide] | > 10000 nM | 3800 nM | 98 nM | 4.98 nM | – | – | – | – | –
2 | Nc1ncnc2c1ncn2-c1ccc(CNC(=O)c2n[nH]c3ncc(C(F)(F)C(F)(F)F)cc23)cc1 [QY-9-77, N-(4-(6-amino-9H-purin-9-yl)benzyl)-5-(perfluoroethyl)-1H-pyrazolo[3,4-b]pyridine-3-carboxamide] | 5000 nM | 344 nM | – | – | 171 nM | 9.04 nM | – | – | –
3 | Cn1nc(C(=O)NCc2ccc(-n3ccc4c(N)nccc43)cc2)cc1Cc1ccccc1 [ZSQ-16-3] | > 10000 nM | 2320 nM | – | – | > 10000 nM | 361 nM | – | – | –
4 | C[C@@H](c1ccc(-n2cnc3c(N)ncnc32)cc1)N1CCc2nn(C)c(Cc3ccccc3)c2C1=O [QY-13-33] | 3.02 nM | 1.32 nM | – | – | 2.85 nM | 0.296 nM | stronger activity | – | –
5 | Cn1nnc(C(=O)NCc2ccc(-n3cnc4cc(C#N)ccc43)cc2)c1Cc1ccccc1 [QY-15-59] | 0.001 nM | 0.001 nM | – | – | – | 0.00767 nM | stronger activity | – | –
6 | CNC(=O)c1ccc2c(c1)ncn2-c1ccc(CNC(=O)c2nnc(Cc3ccccc3)o2)cc1 [QY-7-32, 5-Benzyl-N-(4-(5-(methylcarbamoyl)-1H-benzo[d]imidazol-1-yl)benzyl)-1,3,4-oxadiazol-2-carboxamide] | > 10000 nM | > 10000 nM | – | – | 1520 nM | 185 nM | – | – | –
7 | CNC(=O)c1ccc2c(c1)ncn2-c1ccc(CC(=O)N(C)Cc2cc(F)cc(F)c2F)cc1 [QY-5-40, N-methyl-1-(4-(2-(methyl(2,3,5-trifluorobenzyl)amino)-2-oxoethyl)phenyl)-1H-benzo[d]imidazol-5-formamide] | > 10000 nM | 5000 nM | – | – | > 10000 nM | 2500 nM | – | – | –
8 | CC(c1ccc(-n2cnc3c(N)ncnc32)cc1)N1CCc2nn(C)c(Cc3ccccc3)c2C1=O (centres unmarked) [QY-12-90] | 42.7 nM | 2.41 nM | – | – | 0.813 nM | 0.13 nM | – | – | –
9 | COc1cnc2c(c1)ncn2-c1ccc(CNC(=O)c2nnn(C)c2Cc2ccccc2)cc1 [ET-0934] | 558 nM | 16.6 nM | – | – | 15.5 nM | 0.489 nM | – | – | –
10 | Cn1ncc(C(=O)NC(C)(C)c2ccc(-n3cnc4c(N)ncnc43)cc2)c1Cc1ccccc1 [QY-12-102] | 6960 nM | 550 nM | – | – | 28.5 nM | 7.52 nM | – | – | –
11 | CNC(=O)c1ccc2c(c1)ncn2-c1ccc(CNC(=O)c2n[nH]c(Cc3ccccc3)n2)cc1 [ZSQ-13-46] | > 10000 nM | > 10000 nM | – | – | > 10000 nM | > 10000 nM | – | – | –
12 | N#Cc1ccc(C(=O)NCc2ccc(-n3cnc4c(N)ncnc43)cc2)n1Cc1ccccc1 [QY-12-51] | 3770 nM | 875 nM | – | – | 1860 nM | 214 nM | – | – | –
13 | Nc1ncnc2c1ccn2-c1ccc(CNC(=O)Cc2cccc(OC(F)(F)F)c2)cc1 [QY-9-69, O—N-(4-(4-amino-7H-pyrrolo[2,3-d]pyrimidine-7-yl)benzyl)-2-(3-(trifluoromethoxy)phenyl)acetamide] | > 10000 nM | 567 nM | – | – | > 10000 nM | > 10000 nM | – | – | –
14 | CNC(=O)c1ccc2c(c1)ncn2-c1ccc(CC(=O)N2CCCC2c2ccccc2)cc1 (centres unmarked) [QY-7-65, N-methyl-1-(4-(2-oxo-2-(2-phenylpyrrolidin-1-yl)ethyl)phenyl)-1H-benzo[d]imidazol-5-carboxamide] | > 10000 nM | > 10000 nM | – | – | > 10000 nM | > 10000 nM | – | – | –
15 | COc1ccc2c(c1)ncn2-c1ccc(CNC(=O)c2cnn(C)c2Cc2ccccc2)cc1 [QY-12-4] | – | – | – | – | – | – | – | 128 nM | 17.6 nM
16 | COc1ccc2ncn(-c3ccc(CNC(=O)c4nnn(C)c4Cc4ccccc4)cc3)c2n1 [ET-0935] | 0.001 nM | 0.001 nM | – | – | 0.244 nM | 0.0235 nM | stronger activity | – | –
17 | COc1cc2ncnc(-c3ccc(CNC(=O)c4cnn(C)c4Cc4ccccc4)cc3)c2cc1OC [QY-11-75] | > 10000 nM | > 10000 nM | – | – | 1500 nM | 233 nM | – | – | –
18 | C[C@@H](NC(=O)c1cnn(C)c1Cc1ccccc1)c1ccc(-n2cnc3c(N)ncnc32)cc1 [QY-12-97] | 219 nM | 51.9 nM | – | – | 132 nM | 36.1 nM | – | – | –
19 | Cn1nc(Cl)c(C(=O)NCc2ccc(-n3cnc4c(N)ncnc43)cc2)c1Cc1ccccc1 [QY-12-100] | 4.63 nM | 0.458 nM | – | – | 0.734 nM | 0.172 nM | stronger activity | – | –
20 | Cn1nc(C(=O)NCc2ccc(-n3ccc4c(N)ncnc43)cc2)cc1Cc1ccccc1 [QY-10-21, N-(4-(4-amino-7H-pyrrolo[2,3-d]pyrimidin-7-yl)benzyl)-5-benzyl-1-methyl-1H-pyrazol-3-carboxamide] | > 10000 nM | > 10000 nM | – | – | 299 nM | 49 nM | – | – | –
21 | Cn1ncc(C(=O)NCc2ccc(-c3ccnc4[nH]ccc34)cc2)c1Cc1ccccc1 [QY-11-79] | > 10000 nM | > 10000 nM | – | – | 747 nM | 152 nM | – | – | –
22 | CNC(=O)c1ccc2c(ccn2-c2ccc(CNC(=O)c3ncc(Cc4ccccc4)o3)cc2)c1 [XHJ-2-88] | 3980 nM | 831 nM | – | – | 380 nM | 70.1 nM | – | – | –
23 | Nc1ncnc2c1ncn2-c1ccc(CNC(=O)c2cncn2Cc2ccccc2)cc1 [ZSQ-21-14] | – | – | – | – | > 10000 nM | 290 nM | – | – | –
24 | CNC(=O)c1ccc2c(cnn2-c2ccc(CNC(=O)c3cnn(C)c3Cc3ccccc3)cc2)c1 [QY-11-104] | – | – | – | – | 48.4 nM | 4.43 nM | – | – | –
25 | C[C@H](NC(=O)c1nnn(C)c1Cc1ccccc1)c1ccc(-n2cnc3c(N)ncnc32)cc1 [QY-13-50] | – | – | – | – | 0.001 nM | 0.001 nM | – | – | –
